ChEMBL document CHEMBL1155342, “Design, synthesis and analgesic properties of novel conformationally-restricted N-acylhydrazones (NAH)” (2009)

How the values were obtained:
[1] = test system: Mus musculus; experiment: Antinociceptive activity in mouse assessed as inhibition of acetic acid-induced abdominal constrictions at 100 umol/kg, po relative to untreated control; format: functional; conditions: Abdomen
[2] = test system: Mus musculus; experiment: Antinociceptive activity in po dosed mouse assessed as inhibition of acetic acid-induced abdominal constrictions; format: functional; conditions: Abdomen

Row | Structure (SMILES) | inhibition in vivo at 100 µmol/kg [1] [%] | ED50 [2] [µmol/kg]
1 | COc1ccc(-c2nnc3ccc(-c4ccccc4)nn23)cc1 | 22 | –
2 | COc1ccc(C(=O)N/N=C/c2ccccc2)cc1 | 54 | 9.2
3 | COc1ccc2c(=O)n(/N=C/c3ccccc3)cnc2c1 | 48 | 4.2
4 | COC1=CC2N=CN=C(N/N=C/c3ccccc3)C2C=C1 (centres undefined) | 28 | –
5 | COc1ccc(C(=O)n2nc(-c3ccccc3)cc2C)cc1 | 50 | 5.1
6 | COc1ccc2c(c1)c(CC(=O)O)c(C)n2C(=O)c1ccc(Cl)cc1 [INDOMETHACIN] | 42 | 56.2
7 | COc1ccc(C(=O)N(C)/N=C/c2ccccc2)cc1 | 50 | 5.9
8 | COc1ccc2c(c1)CC(c1ccccc1)=NNC2=O | 36 | –
9 | CC(=O)Nc1ccc(O)cc1 [ACETAMINOPHEN] | 36 | –
